Measurements from patent US10913727B2, “Modulators of the integrated stress pathway” (Calico Life Sciences LLC, priority 2016, dated 2021).

System: HEK293T cells carrying the ATF4 luciferase reporter
Assay: ATF4-Luc assay, in vitro model of Vanishing Cell White Matter Disease (VWMD)
Type: cell-based
Conditions: Homo sapiens, HEK-293T, 1 μg/mL tunicamycin, 7 hours, One Glo luminescence
Procedure, shortened: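 Compound at 200 nM and tunicamycin at 1 μg/mL were given together for 7 h to HEK293T cells stably transduced with an ATF4 5′-UTR-driven firefly luciferase reporter. Read-out by luminescence, reported as EC50.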

Structure (SMILES)	EC50
COCCCc1cnc(C(=O)NC23CC(NC(=O)COc4ccc(Cl)c(F)c4)(C2)C3)cn1 [Compound 172, N-{3-[2-(4-chloro-3-fluorophenoxy)acetamido]bicyclo[1.1.1]pentan-1-yl}-5-(3-methoxypropyl)pyrazine-2-carboxamide]	250 to 1000 nM
Cc1nc(C(=O)NC23CCC(NC(=O)COc4ccc(Cl)c(F)c4)(CC2)[C@@H](O)C3)cs1 [Compound 572, N-{(3S)-4-[2-(4-chloro-3-fluorophenoxy)acetamido]-3-hydroxybicyclo[2.2.2]octan-1-yl}-2-methyl-1,3-thiazole-4-carboxamide]	50 to 250 nM
O=C(COc1ccc(Cl)c(F)c1)NC12CCC(NC(=O)c3cc(F)ccn3)(CC1)CC2O (stereo not shown) [Compound 936, N-{4-[2-(4-chloro-3-fluorophenoxy)acetamido]-3-hydroxybicyclo[2.2.2]octan-1-yl}-4-fluoropyridine-2-carboxamide]	50 to 250 nM
Cc1cc(C(=O)NC23CCC(NC(=O)COc4ccc(Cl)c(F)c4)(CC2)C(=O)C3)on1 [Compound 630, N-{4-[2-(4-chloro-3-fluorophenoxy)acetamido]-3-oxobicyclo[2.2.2]octan-1-yl}-3-methyl-1,2-oxazole-5-carboxamide]	250 to 1000 nM
O=C(COc1ccc(Cl)c(F)c1)NC12CC(NC(=O)c3ccc4ncoc4c3)(C1)C2 [Compound 834, N-{3-[2-(4-chloro-3-fluorophenoxy)acetamido]bicyclo[1.1.1]pentan-1-yl}-1,3-benzoxazole-6-carboxamide]	250 to 1000 nM
O=C(COc1ccc(Cl)c(F)c1)NC12CC(NC(=O)c3cnc(C4CC4)nc3)(C1)C2 [Compound 888, N-{3-[2-(4-chloro-3-fluorophenoxy)acetamido]bicyclo[1.1.1]pentan-1-yl}-2-cyclopropylpyrimidine-5-carboxamide]	50 to 250 nM
Cc1cccc(C(=O)NC23CC(NC(=O)COc4ccc(Cl)c(F)c4)(C2)C3)c1 [Compound 535, N-{3-[2-(4-chloro-3-fluorophenoxy)acetamido]bicyclo[1.1.1]pentan-1-yl}-3-methylbenzamide]	50 to 250 nM
Cc1ncc(C(=O)NC23CC(NC(=O)COc4ccc(Cl)c(F)c4)(C2)C3)o1 [Compound 257, N-{3-[2-(4-chloro-3-fluorophenoxy)acetamido]bicyclo[1.1.1]pentan-1-yl}-2-methyl-1,3-oxazole-5-carboxamide]	50 to 250 nM
O=C(COc1ccc(Cl)c(F)c1)NC12CC(NC(=O)c3cnc(C4CC4)cn3)(C1)C2 [Compound 266, N-{3-[2-(4-chloro-3-fluorophenoxy)acetamido]bicyclo[1.1.1]pentan-1-yl}-5-cyclopropylpyrazine-2-carboxamide]	50 to 250 nM
N#Cc1ccsc1C(=O)NC12CC(NC(=O)COc3ccc(Cl)c(F)c3)(C1)C2 [Compound 860, N-{3-[2-(4-chloro-3-fluorophenoxy)acetamido]bicyclo[1.1.1]pentan-1-yl}-3-cyanothiophene-2-carboxamide]	1000 to 2000 nM
CC(=O)Nc1cccc(C(=O)NC23CC(NC(=O)COc4ccc(Cl)c(F)c4)(C2)C3)n1 [Compound 884, 6-acetamido-N-{3-[2-(4-chloro-3-fluorophenoxy)acetamido]bicyclo[1.1.1]pentan-1-yl}pyridine-2-carboxamide]	250 to 1000 nM
CC(C)c1ccc(C(=O)NC23CC(NC(=O)COc4ccc(Cl)c(Cl)c4)(C2)C3)cn1 [Compound 643, N-{3-[2-(3,4-dichlorophenoxy)acetamido]bicyclo[1.1.1]pentan-1-yl}-6-(propan-2-yl)pyridine-3-carboxamide]	250 to 1000 nM
O=C(COc1ccc(Cl)c(F)c1)NC12CCC(NC(=O)c3ccncn3)(CC1)C(O)C2 (stereo not shown) [Compound 226, N-{4-[2-(4-chloro-3-fluorophenoxy)acetamido]-2-hydroxybicyclo[2.2.2]octan-1-yl}pyrimidine-4-carboxamide]	250 to 1000 nM
O=C(COc1ccc2c(c1)OC(F)(F)O2)NC12CC(NC(=O)c3cnc(-c4ccccc4)o3)(C1)C2 [Compound 742, N-(3-{2-[(2,2-difluoro-2H-1,3-benzodioxol-5-yl)oxy]acetamido}bicyclo[1.1.1]pentan-1-yl)-2-phenyl-1,3-oxazole-5-carboxamide]	< 50 nM
O=C(COc1ccc(Cl)c(F)c1)NC12CC(NC(=O)c3ccnc(C(=O)NCCO)c3)(C1)C2 [Compound 288, N^4-{3-[2-(4-chloro-3-fluorophenoxy)acetamido]bicyclo[1.1.1]pentan-1-yl}-N^2-(2-hydroxyethyl)pyridine-2,4-dicarboxamide]	> 2000 nM
Cc1cc(C(=O)NC23CC(NC(=O)COc4ccc(Cl)c(F)c4)(C2)C3)sn1 [Compound 564, N-{3-[2-(4-chloro-3-fluorophenoxy)acetamido]bicyclo[1.1.1]pentan-1-yl}-3-methyl-1,2-thiazole-5-carboxamide]	50 to 250 nM
O=C(COc1ccc(Cl)c(F)c1)NC12CCC(NC(=O)c3cnc4ccccn34)(CC1)CC2O (stereo not shown) [Compound 595, N-{4-[2-(4-chloro-3-fluorophenoxy)acetamido]-3-hydroxybicyclo[2.2.2]octan-1-yl}imidazo[1,2-a]pyridine-3-carboxamide]	1000 to 2000 nM
COCc1cncc(C(=O)NC23CC(NC(=O)COc4ccc(Cl)c(Cl)c4)(C2)C3)c1 [Compound 569, N-{3-[2-(3,4-dichlorophenoxy)acetamido]bicyclo[1.1.1]pentan-1-yl}-5-(methoxymethyl)pyridine-3-carboxamide]	< 50 nM
Cc1cc(C(=O)NC23CCC(NC(=O)COc4ccc(Cl)c(F)c4)(C2)C3)on1 [Compound 324, N-{4-[2-(4-chloro-3-fluorophenoxy)acetamido]bicyclo[2.1.1]hexan-1-yl}-3-methyl-1,2-oxazole-5-carboxamide]	250 to 1000 nM
O=C(COc1ccc(Cl)c(F)c1)NC12CC(NC(=O)c3cn4cccnc4n3)(C1)C2 [Compound 772, N-{3-[2-(4-chloro-3-fluorophenoxy)acetamido]bicyclo[1.1.1]pentan-1-yl}imidazo[1,2-a]pyrimidine-2-carboxamide]	> 2000 nM
O=C(COc1ccc(Cl)c(F)c1)NC12CC(NC(=O)c3cc(C(F)F)no3)(C1)C2 [Compound 654, N-{3-[2-(4-chloro-3-fluorophenoxy)acetamido]bicyclo[1.1.1]pentan-1-yl}-3-(difluoromethyl)-1,2-oxazole-5-carboxamide]	50 to 250 nM
COc1cscc1C(=O)NC12CC(NC(=O)COc3ccc(Cl)c(F)c3)(C1)C2 [Compound 557, N-{3-[2-(4-chloro-3-fluorophenoxy)acetamido]bicyclo[1.1.1]pentan-1-yl}-4-methoxythiophene-3-carboxamide]	> 2000 nM
O=C(COc1ccc(Cl)cc1)NC12CC(Nc3nnc(-c4ccc(Cl)cc4)o3)(C1)C2 [Compound 264, 2-(4-chlorophenoxy)-N-(3-{[5-(4-chlorophenyl)-1,3,4-oxadiazol-2-yl]amino}bicyclo[1.1.1]pentan-1-yl)acetamide]	250 to 1000 nM
O=C(COc1ccc(Cl)c(F)c1)NC12CCC(NC(=O)c3onc4ccccc34)(CC1)CC2O (stereo not shown) [Compound 328, N-{4-[2-(4-chloro-3-fluorophenoxy)acetamido]-3-hydroxybicyclo[2.2.2]octan-1-yl}-2,1-benzoxazole-3-carboxamide]	1000 to 2000 nM
Cc1cc2c(NC34CC(NC(=O)COc5ccc(OC(F)F)cc5)(C3)C4)nccn2n1 [Compound 438, 2-[4-(difluoromethoxy)phenoxy]-N-{3-[(2-methylpyrazolo[1,5-a]pyrazin-4-yl)amino]bicyclo[1.1.1]pentan-1-yl}acetamide]	250 to 1000 nM
